Laboratory results taken from patent US6737383B1, “Herbicidal oxadiazolidines” (priority 1999, dated 2004).

Legend:
purple nutsedge = assay: Test B pre/postemergence purple nutsedge; type: in vivo, Cyperus rotundus
How it was run: (§1)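 Response is a visual 0-to-10 score relative to untreated plants, where 0 means no effect and 10 means complete control, taken twelve to sixteen days after application. Treatments went onto soil at planting and onto foliage of 1- to 4-leaf plants, using a surfactant-containing non-phytotoxic solvent.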

wild oat = assay: Test B pre/postemergence wild oat; type: in vivo, Avena fatua
How it was run: as §1

wheat = assay: Test B pre/postemergence wheat; type: in vivo, Triticum aestivum
How it was run: as §1

sugar beet = assay: Test B pre/postemergence sugar beet; type: in vivo, Beta vulgaris
How it was run: as §1

cocklebur = assay: Test B pre/postemergence cocklebur; type: in vivo, Xanthium strumarium
How it was run: as §1

rape = assay: Test B pre/postemergence rape; type: in vivo, Brassica napus
How it was run: as §1

crabgrass = assay: Test B pre/postemergence crabgrass; type: in vivo, Digitaria sanguinalis
How it was run: as §1

pigweed = assay: Test B pre/postemergence pigweed; type: in vivo, Amaranthus retroflexus
How it was run: as §1

bedstraw = assay: Test B pre/postemergence bedstraw; type: in vivo, Galium aparine; settings: Preemergence
How it was run: as §1

surinam grass = assay: Test B pre/postemergence surinam grass; type: in vivo, Brachiaria decumbens
How it was run: as §1

morningglory = assay: Test B pre/postemergence morningglory; type: in vivo, Ipomoea hederacea
How it was run: as §1

smallflower flatsedge = assay: Test B flood test smallflower flatsedge; type: in vivo, Cyperus difformis
How it was run: (§2)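 Flood test on plants grown to the 2-leaf stage; treated plants kept in greenhouse twelve to sixteen days, then visually rated against controls on a 0 (no effect) to 10 (complete control) scale.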

duck salad = assay: Test B flood test duck salad; type: in vivo, Heteranthera limosa
How it was run: as §2

blackgrass = assay: Test B pre/postemergence blackgrass; type: in vivo, Alopecurus myosuroides
How it was run: as §1

soybean = assay: Test B pre/postemergence soybean; type: in vivo, Glycine max
How it was run: as §1

giant foxtail = assay: Test B pre/postemergence giant foxtail; type: in vivo, Setaria faberii
How it was run: as §1

rice = assay: Test B flood test rice; type: in vivo, Oryza sativa
How it was run: as §2

bamyardgrass = assay: Test B flood test barnyardgrass; type: in vivo, Echinochloa crus-galli
How it was run: as §2

velvetleaf = assay: Test B pre/postemergence velvetleaf; type: in vivo, Abutilon theophrasti
How it was run: as §1

corn = assay: Test B pre/postemergence corn; type: in vivo, Zea mays
How it was run: as §1

[1] = Postemergence, Rate 62 g/ha, scale of 0 to 10, 0 is no effect, 10 is complete control
[2] = Postemergence, Rate 125 g/ha, scale of 0 to 10 where 0 is no effect and 10 is complete control
[3] = Postemergence, Rate 250 g/ha, scale of 0 to 10, 0 is no effect, 10 is complete control
[4] = Postemergence, Rate 500 g/ha, scale of 0 to 10 where 0 is no effect and 10 is complete control
[5] = Preemergence, Rate 62 g/ha, scale 0 to 10 (0 no effect, 10 complete control)
[6] = Preemergence, Rate 125 g/ha, scale of 0 to 10 where 0 is no effect and 10 is complete control
[7] = Preemergence, Rate 500 g/ha, scale of 0 to 10 where 0 is no effect and 10 is complete control
[8] = Rate 62 g/ha, flood test species, Pre-emergence, visual evaluation after twelve to sixteen days
[9] = Rate 125 g/ha, under heading Pre-emergence, flood test species, visual evaluation after twelve to sixteen days
[10] = Rate 250 g/ha, Pre-emergence (flood test species), scale 0 to 10, 0 is no effect, 10 is complete control
[11] = Rate 500 g/ha, Pre-emergence section of Table B, 0 to 10 scale (0 no effect, 10 complete control)

COC(C)n1c(=O)on(C(=O)N(c2ccc(F)cc2F)C(C)C)c1=O (stereo not drawn) [Compound 593]
Nutsedge plant response rating (purple nutsedge; [1]): 0 | Plant response rating, Nutsedge (purple nutsedge; [2]): 0 | Nutsedge plant response rating (purple nutsedge; [3]): 0 | Plant response rating, Nutsedge (purple nutsedge; [4]): 0 | Nutsedge plant response rating (purple nutsedge; [5]): 0 | Nutsedge plant response rating (purple nutsedge; [6]): 0 | Plant response rating, Nutsedge (purple nutsedge; [7]): 2 | Plant response rating, Wild oats (wild oat; [2]): 0 | Wild oats plant response rating (wild oat; [3]): 0 | Plant response rating, Wild oats (wild oat; [4]): 0 | Wild oats plant response rating (wild oat; [5]): 0 | Wild oats plant response rating (wild oat; [6]): 0 | Plant response rating, Wild oats (wild oat; [7]): 0 | Plant response rating, Wheat (wheat; [2]): 0 | Wheat plant response rating (wheat; [3]): 0 | Plant response rating, Wheat (wheat; [4]): 0 | Wheat plant response rating (wheat; [5]): 0 | Wheat plant response rating (wheat; [6]): 0 | Plant response rating, Wheat (wheat; [7]): 0 | Plant response rating, Sugarbeets (sugar beet; [2]): 0 | Sugarbeets plant response rating (sugar beet; [3]): 0 | Plant response rating, Sugarbeets (sugar beet; [4]): 0 | Sugarbeets plant response rating (sugar beet; [5]): 0 | Sugarbeets plant response rating (sugar beet; [6]): 0 | Plant response rating, Sugarbeets (sugar beet; [7]): 0 | Cocklebur plant response rating (cocklebur; [1]): 0 | Plant response rating, Cocklebur (cocklebur; [2]): 0 | Cocklebur plant response rating (cocklebur; [3]): 0 | Plant response rating, Cocklebur (cocklebur; [4]): 0 | Cocklebur plant response rating (cocklebur; [5]): 0 | Cocklebur plant response rating (cocklebur; [6]): 0 | Cocklebur plant response rating (0 to 10 scale) (cocklebur; Preemergence, Rate 250 g/ha): 0 | Plant response rating, Cocklebur (cocklebur; [7]): 0 | Rape plant response rating (rape; [1]): 0 | Plant response rating, Rape (rape; [2]): 0 | Rape plant response rating (rape; [3]): 0 | Plant response rating, Rape (rape; [4]): 0 | Rape plant response rating (rape; [5]): 0 | Rape plant response rating (rape; [6]): 0 | Plant response rating, Rape (rape; [7]): 0 | Crabgrass plant response rating (crabgrass; [1]): 0 | Plant response rating, Crabgrass (crabgrass; [2]): 0 | Crabgrass plant response rating (crabgrass; [3]): 0 | Crabgrass plant response rating (crabgrass; [5]): 0 | Crabgrass plant response rating (crabgrass; [6]): 0 | Plant response rating, Crabgrass (crabgrass; [7]): 0 | Plant response rating, Redroot pigweed (pigweed; [2]): 0 | Redroot pigweed plant response rating (pigweed; [3]): 0 | Plant response rating, Redroot pigweed (pigweed; [4]): 0 | Redroot pigweed plant response rating (pigweed; [5]): 0 | Redroot pigweed plant response rating (pigweed; [6]): 0 | Plant response rating, Redroot pigweed (pigweed; [7]): 0 | Bedstraw plant response rating (bedstraw; Rate 62 g/ha, scale 0 to 10 (0 no effect, 10 complete control)): 0 | Bedstraw plant response rating (0 to 10 scale) (bedstraw; Rate 250 g/ha): 0 | B. signalgrass plant response rating (surinam grass; [1]): 0 | Plant response rating, B. signalgrass (surinam grass; [2]): 0 | B. signalgrass plant response rating (surinam grass; [3]): 0 | Plant response rating, B. signalgrass (surinam grass; [4]): 0 | B. signalgrass plant response rating (surinam grass; [5]): 0 | B. signalgrass plant response rating (surinam grass; [6]): 0 | B. signalgrass plant response rating (0 to 10 scale, 0 is no effect, 10 is complete control) (surinam grass; Preemergence, Rate 250 g/ha): 0 | B. signalgrass plant response rating (surinam grass; [7]): 0 | Morningglory plant response rating (morningglory; [1]): 0 | Plant response rating, Morningglory (morningglory; [2]): 0 | Morningglory plant response rating (morningglory; [3]): 0 | Plant response rating, Morningglory (morningglory; [4]): 2 | Morningglory plant response rating (morningglory; [5]): 0 | Morningglory plant response rating (morningglory; [6]): 0 | Plant response rating, Morningglory (morningglory; [7]): 0 | Plant response rating, S. Flatsedge (0 to 10 scale, 0 is no effect, 10 is complete control) (smallflower flatsedge; [8]): 0 | S. Flatsedge plant response rating (0 to 10 scale, 0 is no effect, 10 is complete control) (smallflower flatsedge; [9]): 0 | S. Flatsedge plant response rating (smallflower flatsedge; [10]): 0 | S. Flatsedge plant response rating (smallflower flatsedge; [11]): 0 | Plant response rating, Ducksalad (0 to 10 scale, 0 is no effect, 10 is complete control) (duck salad; [8]): 0 | Ducksalad plant response rating (0 to 10 scale, 0 is no effect, 10 is complete control) (duck salad; [9]): 0 | Ducksalad plant response rating (duck salad; [10]): 0 | Ducksalad plant response rating (duck salad; [11]): 0 | Blackgrass plant response rating (blackgrass; [1]): 0 | Plant response rating, Blackgrass (blackgrass; [2]): 0 | Blackgrass plant response rating (blackgrass; [3]): 0 | Plant response rating, Blackgrass (blackgrass; [4]): 0 | Blackgrass plant response rating (blackgrass; [5]): 0 | Blackgrass plant response rating (blackgrass; [6]): 0 | Blackgrass plant response rating (0 to 10 scale) (blackgrass; Preemergence, Rate 250 g/ha): 0 | Blackgrass plant response rating (blackgrass; [7]): 0 | Plant response rating, Soybean (soybean; [2]): 0 | Soybean plant response rating (soybean; [3]): 0 | Plant response rating, Soybean (soybean; [4]): 1 | Soybean plant response rating (soybean; [5]): 0 | Soybean plant response rating (soybean; [6]): 0 | Plant response rating, Soybean (soybean; [7]): 0 | Giant foxtail plant response rating (giant foxtail; [1]): 0 | Plant response rating, Giant foxtail (giant foxtail; [2]): 0 | Giant foxtail plant response rating (giant foxtail; [3]): 0 | Plant response rating, Giant foxtail (giant foxtail; [4]): 0 | Giant foxtail plant response rating (giant foxtail; [5]): 0 | Giant foxtail plant response rating (giant foxtail; [6]): 0 | Plant response rating, Giant foxtail (giant foxtail; [7]): 0 | Plant response rating, Rice (0 to 10 scale, 0 is no effect, 10 is complete control) (rice; [8]): 0 | Rice plant response rating (0 to 10 scale, 0 is no effect, 10 is complete control) (rice; [9]): 0 | Rice plant response rating (rice; [10]): 0 | Rice plant response rating (rice; [11]): 0 | Plant response rating, Barnyardgrass (0 to 10 scale, 0 is no effect, 10 is complete control) (bamyardgrass; [8]): 0 | Barnyardgrass plant response rating (0 to 10 scale, 0 is no effect, 10 is complete control) (bamyardgrass; [9]): 0 | Barnyardgrass plant response rating (bamyardgrass; [10]): 0 | Barnyardgrass plant response rating (bamyardgrass; [11]): 0 | Plant response rating, Velvetleaf (velvetleaf; [2]): 0 | Velvetleaf plant response rating (velvetleaf; [3]): 0 | Plant response rating, Velvetleaf (velvetleaf; [4]): 0 | Velvetleaf plant response rating (velvetleaf; [5]): 0 | Velvetleaf plant response rating (velvetleaf; [6]): 0 | Plant response rating, Velvetleaf (velvetleaf; [7]): 0 | Corn plant response rating (corn; [1]): 0 | Plant response rating, Corn (corn; [2]): 0 | Corn plant response rating (corn; [3]): 0 | Plant response rating, Corn (corn; [4]): 0 | Corn plant response rating (corn; [5]): 0 | Corn plant response rating (corn; [6]): 0 | Corn plant response rating (0 to 10 scale) (corn; Preemergence, Rate 250 g/ha): 0 | Plant response rating, Corn (corn; [7]): 0
